Source: patent publication US7410975B2, “Small molecule toll-like receptor (TLR) antagonists” (Coley Pharmaceutical Group, Inc., priority 2003, dated 2008)
Where a name gives a salt, the structure may show the parent alone.

Each molecule was assayed against T1, human TLR3 (hTLR3) (Homo sapiens, UniProt O15455) (assay: Antagonist screen, hTLR3-NFκB-293 cells, NF-κB-luciferase reporter, with EC50 of poly(I:C)). Settings: compound at 0.5, 5, 50 μg/ml; EC50 concentration of poly(I:C); 16 h; NF-κB-luciferase.
T1 construct: expressed in transfected cells
T1 sequence (O15455 24-904): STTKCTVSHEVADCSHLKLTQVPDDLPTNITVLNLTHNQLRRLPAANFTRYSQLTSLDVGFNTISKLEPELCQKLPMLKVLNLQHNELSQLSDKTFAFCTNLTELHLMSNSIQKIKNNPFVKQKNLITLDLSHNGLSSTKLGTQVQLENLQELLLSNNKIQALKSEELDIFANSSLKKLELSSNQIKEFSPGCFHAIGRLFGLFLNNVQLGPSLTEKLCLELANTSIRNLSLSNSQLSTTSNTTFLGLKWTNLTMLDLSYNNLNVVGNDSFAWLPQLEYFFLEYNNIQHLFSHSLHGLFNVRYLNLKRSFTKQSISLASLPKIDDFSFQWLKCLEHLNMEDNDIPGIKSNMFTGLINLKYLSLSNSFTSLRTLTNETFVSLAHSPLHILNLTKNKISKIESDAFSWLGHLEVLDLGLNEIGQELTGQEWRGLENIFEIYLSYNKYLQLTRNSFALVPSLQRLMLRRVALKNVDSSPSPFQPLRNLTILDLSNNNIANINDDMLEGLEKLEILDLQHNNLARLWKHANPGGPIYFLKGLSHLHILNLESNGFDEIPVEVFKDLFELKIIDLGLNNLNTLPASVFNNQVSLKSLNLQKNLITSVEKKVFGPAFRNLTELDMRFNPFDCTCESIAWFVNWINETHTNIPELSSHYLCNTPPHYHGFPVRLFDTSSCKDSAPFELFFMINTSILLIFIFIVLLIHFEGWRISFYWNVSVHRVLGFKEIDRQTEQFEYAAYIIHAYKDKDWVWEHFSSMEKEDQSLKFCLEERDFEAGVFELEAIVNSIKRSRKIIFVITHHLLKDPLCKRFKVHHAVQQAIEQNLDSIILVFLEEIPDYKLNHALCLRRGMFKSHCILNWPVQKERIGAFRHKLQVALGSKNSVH
Format: cell-based
Summary of the method: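 Scores reflect clear reduction of NF-κB-luciferase signal versus baseline fold induction from EC50 poly(I:C) alone. Compounds tested in duplicate at three final concentrations (0.5, 5, 50 μg/ml) with ligand for 16 h stimulation of hTLR3-NFκB-293 cells plated overnight at 1.5×10^4 per well.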
For `COc1cc2nc(N3CCN(C(=O)C4COc5ccccc5O4)CC3)nc(N)c2cc1OC.CS(=O)(=O)O` (stereo not shown) [compound 858, Doxazosin mesylate], the “hTLR3 (inhibitory effect, antagonist score)” value was “— (compounds for which there was no clear down regulation even at 50 μg/ml)”. In the case of `COc1cc2nc(N3CCN(C(=O)C4CCCO4)CC3)nc(N)c2cc1OC.Cl` (stereo not shown) [compound 751, Terazosin hydrochloride], the “hTLR3 (inhibitory effect, antagonist score)” value was “— (compounds for which there was no clear down regulation even at 50 μg/ml)”. `CCN(CC)CCCC(C)Nc1nc(/C=C/c2ccc(Cl)cc2)nc2cc3ccccc3cc12` (stereo not shown) [compound 2000] was tested, and the “hTLR3 (inhibitory effect, antagonist score)” value was 12 (compounds for which there was clear down regulation at 5 μg/ml and 50 μg/ml). `CCN(CC)CCCNc1nc(-c2ccccc2)nc2ccccc12` [compound 2001] was tested, and the “hTLR3 (inhibitory effect, antagonist score)” value was 11 (compounds for which there was clear down regulation only at 50 μg/ml). For `CN(C)C(=O)C(CCN1CCC(O)(c2ccc(Cl)cc2)CC1)(c1ccccc1)c1ccccc1` [compound 144, Loperamidehydrochloride], the “hTLR3 (inhibitory effect, antagonist score)” value was 11 (compounds for which there was clear down regulation only at 50 μg/ml). In the case of `COc1cc2c(cc1O)C[C@H]1c3c(cc(O)c(OC)c3-2)CCN1C` [compound 600, Boldine], the “hTLR3 (inhibitory effect, antagonist score)” value was “— (compounds for which there was no clear down regulation even at 50 μg/ml)”. For `CN1CCc2cccc3c2[C@H]1Cc1ccc(O)c(O)c1-3.Cl` [compound 101, Apomorphinehydrochloride (R, —)], the “hTLR3 (inhibitory effect, antagonist score)” value was “— (compounds for which there was no clear down regulation even at 50 μg/ml)”. For `CN1CCc2cc3c(c4c2C1Cc1ccccc1-4)OCO3.Cl` (stereo not shown) [compound 669, Remerine hydrochloride], the “hTLR3 (inhibitory effect, antagonist score)” value was “— (compounds for which there was no clear down regulation even at 50 μg/ml)”. In the case of `CC(C)(C)c1ccc(C(O)CCCN2CCC(C(O)(c3ccccc3)c3ccccc3)CC2)cc1` (stereo not shown) [compound 138, Terfenadine], the “hTLR3 (inhibitory effect, antagonist score)” value was 11 (compounds for which there was clear down regulation only at 50 μg/ml).

Same assay, conditions: hTLR3-NFκB-293 cells, with EC50 of poly(I:C); compound at 0.5, 5 and 50 μg/ml
For `O=C(CN1CCCC1)Nc1c2c(nc3ccccc13)N(c1ccccc1)CC2` [compound 1244], the “hTLR3 (inhibitory effect)” value was 11 (compounds for which there was clear down regulation only at 50 μg/ml). With `O=c1c2c(nc(NCCO)n1-c1ccccc1)-c1ccccc1CC21CCCC1` [compound 891] the “hTLR3 (inhibitory effect)” value was 11 (compounds for which there was clear down regulation only at 50 μg/ml). In the case of `CCCCCCCCCCCC(=O)Nc1c2c(nc3ccccc13)N(C)CC2` [compound 1334], the “hTLR3 (inhibitory effect)” value was “— (compounds for which there was no clear down regulation even at 50 μg/ml)”. For `CN1CCc2c1nc1ccccc1c2NC(=O)CN1CCCCCC1` [compound 1003], the “hTLR3 (inhibitory effect)” value was 11 (compounds for which there was clear down regulation only at 50 μg/ml). `Nc1c2c(nc3ccccc13)N(Cc1ccccc1)CC2` [compound 1217, 1-Benzyl-2,3-dihydro-1H-pyrrolo[2,3-b]quinolin-4-ylamine] was tested, and the “hTLR3 (inhibitory effect)” value was 12 (compounds for which there was clear down regulation at 5 μg/ml and 50 μg/ml). `CN1CCc2c1nc1ccc(Br)cc1c2N` [compound 1142, 6-Bromo-1-methyl-2,3-dihydro-1H-pyrrolo[2,3-b]quinolin-4-ylamine] was tested, and the “hTLR3 (inhibitory effect)” value was 11 (compounds for which there was clear down regulation only at 50 μg/ml). With `Cc1ccc(-n2c(NCCO)nc3c(c2=O)C2(CCCCC2)Cc2ccccc2-3)cc1` [compound 1137] the “hTLR3 (inhibitory effect)” value was 13 (compounds for which there was clear down regulation at 0.5 μg/ml, 5 μg/ml, and 50 μg/ml). `COc1cc2cc3c4cc(OC)c(OC)cc4cc[n+]3c(C)c2cc1OC` [compound 431, Coralyne chloridehydrate] was tested, and the “hTLR3 (inhibitory effect)” value was “— (compounds for which there was no clear down regulation even at 50 μg/ml)”. In the case of `CN1CCCCc2c1nc1ccccc1c2N` [compound 1185, 1-Methyl-2,3,4,5-tetrahydro-1H-azepino[2,3-b]quinolin-6-ylamine], the “hTLR3 (inhibitory effect)” value was “— (compounds for which there was no clear down regulation even at 50 μg/ml)”. With `Cc1ccc2nc3c(c(N)c2c1)CCN3C` [compound 1091, 1,6-Dimethyl-2,3-dihydro-1H-pyrrolo[2,3-b]quinolin-4-ylamine] the “hTLR3 (inhibitory effect)” value was 11 (compounds for which there was clear down regulation only at 50 μg/ml). `NNc1nc2c(c(=O)n1C1CCCC1)C1(CCCC1)Cc1ccccc1-2` [compound 1248] was tested, and the “hTLR3 (inhibitory effect)” value was “— (compounds for which there was no clear down regulation even at 50 μg/ml)”. In the case of `Cn1c(NN)nc2c(c1=O)C1(CCCC1)Cc1ccccc1-2` [compound 1213], the “hTLR3 (inhibitory effect)” value was “— (compounds for which there was no clear down regulation even at 50 μg/ml)”. For `O=c1[nH]c(NCCO)nc2c1C1(CCCC1)Cc1ccccc1-2` [compound 1322], the “hTLR3 (inhibitory effect)” value was 11 (compounds for which there was clear down regulation only at 50 μg/ml). With `CN1CCc2c1nc1ccccc1c2NC(=O)CN1CCN(c2ccccc2)CC1` [compound 1212] the “hTLR3 (inhibitory effect)” value was “— (compounds for which there was no clear down regulation even at 50 μg/ml)”. In the case of `O=c1c2c(nc(NCCO)n1Cc1ccccc1)-c1ccccc1CC21CCCC1` [compound 926], the “hTLR3 (inhibitory effect)” value was 12 (compounds for which there was clear down regulation at 5 μg/ml and 50 μg/ml). With `NNc1nc2c(c(=O)n1-c1ccccc1)C1(CCCC1)Cc1ccccc1-2` [compound 1320] the “hTLR3 (inhibitory effect)” value was “— (compounds for which there was no clear down regulation even at 50 μg/ml)”. With `O=C1c2ccc(S(=O)(=O)c3ccc4c(c3)C(=O)N(c3ccccn3)C4=O)cc2C(=O)N1c1ccccn1` [compound 1163] the “hTLR3 (inhibitory effect)” value was 11 (compounds for which there was clear down regulation only at 50 μg/ml). With `O=C1c2ccc(Oc3ccc(S(=O)(=O)c4ccc(Oc5ccc6c(c5)C(=O)N(c5ccccn5)C6=O)cc4)cc3)cc2C(=O)N1c1ccccn1` [compound 1367] the “hTLR3 (inhibitory effect)” value was 12 (compounds for which there was clear down regulation at 5 μg/ml and 50 μg/ml). With `COc1ccc2cc3[n+](cc2c1OC)CCc1cc2c(cc1-3)OCO2.[Cl-]` [compound 586, Berberine chloride] the “hTLR3 (inhibitory effect)” value was 11 (compounds for which there was clear down regulation only at 50 μg/ml). In the case of `COc1ccc(Cc2nccc3cc(OC)c(OC)cc23)cc1OC.Cl` [compound 583, Papaverinehydrochloride], the “hTLR3 (inhibitory effect)” value was “— (compounds for which there was no clear down regulation even at 50 μg/ml)”. `CCCCCCN(CCCCCC)CC(=O)Nc1c2c(nc3ccccc13)N(C)CC2` [compound 1224] was tested, and the “hTLR3 (inhibitory effect)” value was 12 (compounds for which there was clear down regulation at 5 μg/ml and 50 μg/ml). In the case of `CN(C)CCN(Cc1ccc(Cl)cc1)c1ccccn1.Cl` [compound 807, Chloro-pyraminehydrochloride], the “hTLR3 (inhibitory effect)” value was “— (compounds for which there was no clear down regulation even at 50 μg/ml)”. For `CCOc1ccc(Cc2nccc3cc(OCC)c(OCC)cc23)cc1OCC.Cl` [compound 830, Ethaverinehydrochloride], the “hTLR3 (inhibitory effect)” value was “— (compounds for which there was no clear down regulation even at 50 μg/ml)”. `CN1CCc2c1nc1ccccc1c2N` [compound 990, 1-Methyl-2,3-dihydro-1H-pyrrolo[2,3-b]quinolin-4-ylamine] was tested, and the “hTLR3 (inhibitory effect)” value was “— (compounds for which there was no clear down regulation even at 50 μg/ml)”. With `CC[N+](C)(CC)CCC[n+]1c(-c2ccccc2)c2cc(N)ccc2c2ccc(N)cc21.[I-].[I-]` [compound 792, Propidium iodide] the “hTLR3 (inhibitory effect)” value was 12 (compounds for which there was clear down regulation at 5 μg/ml and 50 μg/ml).
